# Where a name gives a salt, the structure may show the parent alone.
# How the values were obtained:
# Adrenergic β2 [1] = target: T1, Adrenergic β2 (Homo sapiens, UniProt P07550); experiment: cAMP production in H292 cells, AlphaScreen cAMP detection (10 minutes incubation with test compound); type: cell-based; conditions: for Intrinsic Activity: fraction relative to the maximum activity determined for formoterol, 10 minutes incubation; for EC50: rolipram 300 μM, test compounds incubated 10 minutes at room temperature
# T1 construct: endogenous in cells; host or cells: H292 cells
# T1 sequence (P07550 whole entry): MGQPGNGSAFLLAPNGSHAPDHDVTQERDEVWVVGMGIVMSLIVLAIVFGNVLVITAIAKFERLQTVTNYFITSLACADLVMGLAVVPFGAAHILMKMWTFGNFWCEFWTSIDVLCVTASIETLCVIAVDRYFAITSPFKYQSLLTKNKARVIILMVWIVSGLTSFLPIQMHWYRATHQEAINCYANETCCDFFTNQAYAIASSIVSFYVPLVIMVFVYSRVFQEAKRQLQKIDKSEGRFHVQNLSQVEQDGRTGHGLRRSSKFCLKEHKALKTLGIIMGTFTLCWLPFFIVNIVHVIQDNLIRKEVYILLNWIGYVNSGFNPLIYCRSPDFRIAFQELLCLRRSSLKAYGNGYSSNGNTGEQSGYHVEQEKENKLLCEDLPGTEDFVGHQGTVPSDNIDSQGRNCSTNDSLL
# Procedure: H292 cells were grown in RPMI (Roswell Park Memorial Institute) medium containing, 10% (v/v) FBS (foetal bovine serum) and 2 mM L-glutamine. Cells were grown in 225 cm2 flasks containing 25 mL media in a humidified incubator at 37° C., 5% CO2. Cells were harvested from the flask and passaged at a 1 in 10 dilution once per week.
# The media from flasks containing H292 cells was removed, rinsed with 10 mL PBS (phosphate buffered saline) and replaced with 10 mL Accutase™ cell detachment solution. Flasks were incubated for 15 minutes in a humidified incubator at 37° C., 5% CO2. The cell suspension was counted and the cells re-suspended in RPMI media (containing 10% (v/v) FBS and 2 mM L-glutamine) at 0.05×10^6 cells per mL. 5000 cells in 100 μL were added to each well of a tissue-culture-treated 96-well plate and the cells incubated overnight in a humidified incubator at 37° C., 5% CO2. The culture media was removed, washed twice with 100 μL assay buffer and replaced with 50 μL assay buffer. Cells were rested at room temperature for 20 minutes after which time 25 μL of rolipram (1.2 mM made up in assay buffer containing 2.4% (v/v) dimethylsulphoxide) was added. Cells were incubated with rolipram for 10 minutes after which time test compounds (made up as ×4 concentrated stocks in assay buffer containing 4% (v/v) dimethylsulphoxide) were added and the cells were incubated for 10 minutes at room temperature. Final rolipram concentration in the assay was 300 μM and final vehicle concentration was 1.6% (v/v) dimethylsulphoxide. The reaction was stopped by removing supernatants, washing once with 100 μL assay buffer and replacing with 50 μL lysis buffer. The cell monolayer was frozen at −80° C. for 30 minutes (or overnight).
# (§1) The concentration of cAMP (cyclic adenosine monophosphate) in the cell lysate was determined using the AlphaScreen™ methodology. The frozen cell plate was thawed for 20 minutes on a plate shaker then 10 μL of the cell lysate was transferred to a 96-well white plate. 40 μL of mixed AlphaScreen™ detection beads (containing equal volumes of donor beads (pre-incubated with biotinylated cAMP in the dark for 30 minutes) and acceptor beads), was added to each well and the plate incubated at room temperature for 10 hours in the dark. The AlphaScreen™ signal was measured using an EnVision spectrophotometer (Perkin-Elmer Inc.) with the recommended manufacturer's settings. cAMP concentrations were determined by reference to a calibration curve determined in the same experiment using standard cAMP concentrations (made up in lysis buffer in a 96-well tissue-culture-treated plate and frozen/thawed alongside the test samples) and detected using the same protocol. Concentration response curves for agonists were constructed to determine both the pEC50 and Intrinsic Activity. Intrinsic Activity was expressed as a fraction relative to the maximum activity determined for formoterol in each experiment.
# Adrenergic β2 [2] = target: T1, Adrenergic β2; experiment: Alternative Adrenergic β2 Mediated cAMP Production in H292 cells (60 minutes incubation with test compound); type: cell-based; conditions: for Intrinsic Activity: fraction relative to the maximum activity determined for formoterol, 60 minutes incubation; for EC50: rolipram 300 μM, test compounds incubated 60 minutes at room temperature
# Procedure: H292 cells were grown in 225 cm2 flasks incubator at 37° C., 5% CO2 in RPMI medium containing, 10% (v/v) FBS (foetal bovine serum) and 2 mM L-glutamine.
# Adherent H292 cells were removed from tissue culture flasks by treatment with Accutase™ cell detachment solution for 15 minutes. Flasks were incubated for 15 minutes in a humidified incubator at 37° C., 5% CO2. Detached cells were re-suspended in RPMI media (containing 10% (v/v) FBS and 2 mM L-glutamine) at 0.05×10^6 cells per mL. 5000 cells in 100 μL were added to each well of a tissue-culture-treated 96-well plate and the cells incubated overnight in a humidified incubator at 37° C., 5% CO2. The culture media was removed and cells were washed twice with 100 μL assay buffer and replaced with 50 μL assay buffer (HBSS solution containing 10 mM HEPES pH7.4 and 5 mM glucose). Cells were rested at room temperature for 20 minutes after which time 25 μL of rolipram (1.2 mM made up in assay buffer containing 2.4% (v/v) dimethylsulphoxide) was added. Cells were incubated with rolipram for 10 minutes after which time test compounds were added and the cells were incubated for 60 minutes at room temperature. The final rolipram concentration in the assay was 300 μM and final vehicle concentration was 1.6% (v/v) dimethylsulphoxide. The reaction was stopped by removing supernatants, washing once with 100 μL assay buffer and replacing with 50 μL lysis buffer. The cell monolayer was frozen at −80° C. for 30 minutes (or overnight).
# as §1, with “using” for “using the”, “pre-incubated” for “(containing equal volumes of donor beads (pre-incubated”, “cAMP,” for “cAMP in the dark for 30 minutes) and acceptor beads),”, “concentrations.” for “concentrations (made up in lysis buffer in a 96-well tissue-culture-treated plate and frozen/thawed alongside the test samples) and detected using the same protocol.”, “constructed and data was fitted to a four parameter logistic equation” for “constructed”
SMILES,Intrinsic Activity (Adrenergic β2 [1]),EC50 (Adrenergic β2 [1]) [nM],Intrinsic Activity (Adrenergic β2 [2]),EC50 (Adrenergic β2 [2]) [nM]
"O=c1ccc2c([C@@H](O)CN[C@H]3CC[C@H](NCCOCCc4ccccc4)CC3)ccc(O)c2[nH]1 [Example 2, 8-Hydroxy-5-{(1R)-1-hydroxy-2-[(trans-4-{[2-(2-phenylethoxy)ethyl]amino}cyclohexyl)amino]ethyl}quinolin-2(1H)-one]",0.9,20,,
"O=c1ccc2c([C@@H](O)CNC3CCN(CCCOCCc4ccccc4)CC3)ccc(O)c2[nH]1 [Example 3, 8-Hydroxy-5-[(1R)-1-hydroxy-2-({1-[3-(2-phenylethoxy)propyl]piperidin-4-yl}amino)ethyl]quinolin-2(1H)-one]",0.8,31.6,,
"O=c1ccc2c([C@@H](O)CNCC3(O)CCN(CCOCCc4ccccc4)CC3)ccc(O)c2[nH]1 [Example 5, 8-Hydroxy-5-{(1R)-1-hydroxy-2-[({4-hydroxy-1-[2-(2-phenylethoxy)ethyl]piperidin-4-yl}methyl)amino]ethyl}quinolin-2(1H)-one]",0.8,2.51,,
"O=C(CCN1CCC(NC[C@H](O)c2ccc(O)c3[nH]c(=O)ccc23)CC1)NCc1ccccc1 [Example 6, N-Benzyl-3-(4-{[(2R)-2-hydroxy-2-(8-hydroxy-2-oxo-1,2-dihydroquinolin-5-yl)ethyl]amino}piperidin-1-yl)propanamide]",0.8,7.94,,
"O=c1ccc2c([C@@H](O)CNC[C@H]3CCCN(CCOCCc4ccccc4)C3)ccc(O)c2[nH]1 [Example 14, 8-Hydroxy-5-{(1R)-1-hydroxy-2-[({(3R)-1-[2-(2-phenylethoxy)ethyl]piperidin-3-yl}methyl)amino]ethyl}quinolin-2(1H)-one]",1.0,5.01,,
"O=c1[nH]c2c(O)ccc([C@@H](O)CNCC3CN(CCCOCCc4ccccc4)C3)c2s1 [Example 20, 4-Hydroxy-7-{(1R)-1-hydroxy-2-[({1-[3-(2-phenylethoxy)propyl]azetidin-3-yl}methyl)amino]ethyl}-1,3-benzothiazol-2(3H)-one hydrochloride]",,,1,0.316
"Cc1cccc(Cl)c1CNC(=O)CCN1CCC(NC[C@H](O)c2ccc(O)c3[nH]c(=O)ccc23)CC1 [Example 31, N-(2-Chloro-6-methylbenzyl)-3-(4-{[(2R)-2-hydroxy-2-(8-hydroxy-2-oxo-1,2-dihydroquinolin-5-yl)ethyl]amino}piperidin-1-yl)propanamide]",,,0.8,5.01
"O=C(CCN1CCC(NC[C@H](O)c2ccc(O)c3[nH]c(=O)ccc23)CC1)NCc1cccc(Cl)c1Cl [Example 36, N-(2,3-Dichlorobenzyl)-3-(4-{[(2R)-2-hydroxy-2-(8-hydroxy-2-oxo-1,2-dihydroquinolin-5-yl)ethyl]amino}piperidin-1-yl)propanamide]",,,,3.16
"O=C(CCN1CCC(NC[C@H](O)c2ccc(O)c3[nH]c(=O)ccc23)CC1)NC12CC3CC(CC(C3)C1)C2 [Example 41, N-1-Adamantyl-3-(4-{[(2R)-2-hydroxy-2-(8-hydroxy-2-oxo-1,2-dihydroquinolin-5-yl)ethyl]amino}piperidin-1-yl)propanamide]",,,0.8,3.98
"O=c1ccc2c([C@@H](O)CNCC3(O)CCN(CCOCCc4cccc5c4CCCC5)CC3)ccc(O)c2[nH]1 [Example 74, 8-Hydroxy-5-{(2R)-1-hydroxy-2-[(4-hydroxy-1-{2-[2-(5,6,7,8-tetrahydronaphthalen-1-yl)ethoxy]ethyl}piperidin-4-ylmethyl)amino]ethyl}-1H-quinolin-2-one]",,,0.9,0.794

# Source: patent US20090029958A1, “PHENETHANOLAMINE DERIVATIVES AS BETA2 ADRENORECEPTOR AGONISTS” (priority 2006, published 2009)
